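A five-concentration, 48-hour dose response in 96-well plates underlies each endpoint, interpolated linearly between surrounding concentrations. At the TGI there is no net growth.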
How the values were obtained:
Assay in all cases: NCI tumour cell line growth inhibition, 48 h
786-0 renal = test system: 786-0 renal
A498 renal = test system: A498 renal
A549 NSCLC = test system: A549 NSCLC
ACHN renal = test system: ACHN renal
CAKI-1 renal = test system: CAKI-1 renal
CCRF-CEM leukemia = test system: CCRF-CEM leukemia
COLO 205 colon = test system: COLO 205 colon
DMS 273 small cell lung = test system: DMS 273 small cell lung
EKVX NSCLC = test system: EKVX NSCLC
HCT-116 colon = test system: HCT-116 colon
HCT-15 colon = test system: HCT-15 colon
HL-60(TB) leukemia = test system: HL-60(TB) leukemia
HOP-62 NSCLC = test system: HOP-62 NSCLC
HOP-92 NSCLC = test system: HOP-92 NSCLC
HT29 colon = test system: HT29 colon
IGROV1 ovarian = test system: IGROV1 ovarian
K-562 leukemia = test system: K-562 leukemia
KM12 colon = test system: KM12 colon
KM20L2 colon = test system: KM20L2 colon
LOX IMVI melanoma = test system: LOX IMVI melanoma
LXFL 529 NSCLC = test system: LXFL 529 NSCLC
M14 melanoma = test system: M14 melanoma
M19-MEL melanoma = test system: M19-MEL melanoma
MOLT-4 leukemia = test system: MOLT-4 leukemia
NCI-H226 lung = test system: NCI-H226 lung
NCI-H23 lung = test system: NCI-H23 lung
NCI-H460 lung = test system: NCI-H460 lung
NCI-H522 lung = test system: NCI-H522 lung
OVCAR-3 ovarian = test system: OVCAR-3 ovarian
OVCAR-4 ovarian = test system: OVCAR-4 ovarian
OVCAR-5 ovarian = test system: OVCAR-5 ovarian
OVCAR-8 ovarian = test system: OVCAR-8 ovarian
RPMI-8226 leukemia = test system: RPMI-8226 leukemia
RXF 393 renal = test system: RXF 393 renal
RXF-631 renal = test system: RXF-631 renal
SF-268 CNS = test system: SF-268 CNS
SF-295 CNS = test system: SF-295 CNS
SF-539 CNS = test system: SF-539 CNS
SK-MEL-2 melanoma = test system: SK-MEL-2 melanoma
SK-MEL-28 melanoma = test system: SK-MEL-28 melanoma
SN12C renal = test system: SN12C renal
SNB-19 CNS = test system: SNB-19 CNS
SNB-78 CNS = test system: SNB-78 CNS
SR leukemia = test system: SR leukemia
SW-620 colon = test system: SW-620 colon
TK-10 renal = test system: TK-10 renal
U251 CNS = test system: U251 CNS
UACC-257 melanoma = test system: UACC-257 melanoma
UACC-62 melanoma = test system: UACC-62 melanoma
UO-31 renal = test system: UO-31 renal
DLD-1 colon = test system: DLD-1 colon
DMS 114 small cell lung = test system: DMS 114 small cell lung
HCC-2998 colon = test system: HCC-2998 colon
HOP-18 NSCLC = test system: HOP-18 NSCLC
MALME-3M melanoma = test system: MALME-3M melanoma
SK-MEL-5 melanoma = test system: SK-MEL-5 melanoma
SK-OV-3 ovarian = test system: SK-OV-3 ovarian
SNB-75 CNS = test system: SNB-75 CNS
XF 498 CNS = test system: XF 498 CNS

Measured: TGI

O=c1c2cc(Cl)ccc2sc2cccc(Cl)c12
not listed: DLD-1 colon | DMS 114 small cell lung | HCC-2998 colon | HOP-18 NSCLC | MALME-3M melanoma | SK-MEL-5 melanoma | SK-OV-3 ovarian | SNB-75 CNS | XF 498 CNS
> 100 µM: all other assays above

O=Cc1c(O)c(C(=O)Nc2ccc3[nH]c(=O)[nH]c3c2)cc2ccccc12
not listed: SR leukemia | XF 498 CNS
> 100 µM: all other assays above

Cc1cccc(C)c1NC(=O)C(=O)Nn1c(NN)nc2ccccc2c1=O
not listed: DLD-1 colon | XF 498 CNS
> 100 µM: all other assays above

COc1ccc(-c2cc3[nH]nc(N)c3c(=O)o2)cc1
not listed: 786-0 renal | HOP-62 NSCLC | M19-MEL melanoma | NCI-H226 lung | NCI-H522 lung | OVCAR-3 ovarian | RXF-631 renal | UACC-62 melanoma | SK-OV-3 ovarian
> 100 µM: all other assays above

— PubChem BioAssay (NCI)
